Measured values reported in patent publication US4882359A, “Azacycloalkane derivatives, absorption promoters containing the derivatives as the effective ingredient and external preparations containing the absorption promoters” (priority 1986, dated 1989).
Like-named read-outs stand apart in the source and are kept apart here.

Key:
[1] = Skin penetration of 5-FU from test solution, diffusion cell method; type: in vitro ADME, female hairless mice
[2] = Percutaneous absorption of pindolol in rats, serum concentration by HPLC; type: in vivo, Wistar-strain male rats; settings: relative to Control (Vehicle) = 1.0 of the same series in Table 5
Experimental: There were provided groups each consisting of four Wistar-strain male rats each weighing 200 to 250 g and having their dorsal skin hair shorn with an electric shaver.
Each of the test solutions (pindolol-containing preparations) was applied to the shorn dorsal skin of test rats of one of the groups in an amount of 150 μl/2.5×2.5 cm^2 and then sealed up. Three hours after the application of the test solution, the blood of the test rats was collected and measured for serum concentration of pindolol by HPLC.
For comparison, the above procedure was followed except that there was used a control solution which was the same as said test solution except for non-use of any compounds of this invention, and also followed using a comparative test solution which was the same as the test solution except for the substitution of a comparative compound for the compound of this invention.

[3] = Skin penetration of pindolol from test solution, diffusion cell method; type: in vitro ADME, female hairless mice
[4] = relative to Control (Vehicle) = 1.0
Experimental: There were investigated the effects of the compound of this invention on the percutneous penetration of phenol red which is difficult to be penetrated using the dorsal skin of female hairless mice (each 9 weeks old) by a diffusion cell method which comprised adding 0.5 ml of a sodium chloride injection containing 2 mM of phenol red to the donor side and measuring the amount of phenol red permeated into the receptor layer by high-pace optimal densitometric meter (559 nm).

[5] = Rectal absorption of antibiotics from suppositories, serum concentration by HPLC; type: in vivo, male rabbits; settings: relative to Control (Vehicle) = 1.0, equals AUC ratio
Experimental: There was prepared the following suppositories of antibiotics for use in control and test groups, respectively, each group consisting of five male rabbits weighing 2.5 to 3.5 kg each.

[6] = hydrophylic ointment, relative to Control (Vehicle) = 1.0
[7] = gel ointment, relative to Control (Vehicle) = 1.0
[8] = acryl tape, relative to Control (Vehicle) = 1.0
[9] = Skin penetration of various drugs from test solution, diffusion cell method; type: in vitro ADME, female hairless mice
[10] = relative to Control (Vehicle) = 1.0; equals ratio of 48 hrs values
Experimental: There were investigated the effects of the compound of this invention on the percutaneous penetration of ketoprofen using the dorsal skin of female hairless mice (each 9 weeks old) by a diffusion cell method which comprised adding 0.5 ml of said test solution to the donor side and measuring the amount of ketoprofen permeated into the receptor layer by performance liquid chromatography (HPLC). For comparison, the above procedure was followed except that a control solution containing no compound of this invention was substituted for said test solution containing the compound of this invention.

glucose level in blood [11] = test: Percutaneous absorption of glibenclamide: glucose level in blood of glucose-loaded rats; type: in vivo, Wistar-strain male rats
Experimental: There were prepared control and test solutions having the following respective formulations (Table 8): […]
In the tests, there were used groups each consisting of four Wistar-strain male rats which weighed about 200 to 250 g and abstained from food for 24 hours.
Each of the control solutions A and B and the test solution indicated in the above Table 8 was applied to the dorsal skins, shorn by an electric clipper or shaver, of the rats of one group in an amount of 175 μl/2.5×2.5 cm^2 and then sealed up. Three hours after sealing up, 1.5 ml of 20% glucose was subcutaneously injected into said rats. Two hours after the glucose injection, the blood of the rats was collected and measured for glucose level in blood.
For comparison, the above procedure was followed except that azone was substituted for the compound of Example 12 in the test solution.
For further comparison, the blood of rats of one group which had been subjected only to 24 hours' abstinence from food (this group being hereinafter referred to as "normal group"), was measured for glucose level in blood. The rat groups to which the control solution A, the control solution B and the test solution were applied, are hereinafter referred to as "control group A", "control group B" and "test group", respectively.

in vivo = settings: rat
[12] = system: dorsal skin of Japanese-native rabbits; test: Primary skin irritation test (Draize's method); type: in vivo; set-up: key to Average irritation score, 24 hours / Average irritation score, 48 hours / Average irritation score, 72 hours: Draize points: 0-2 mild, 2-6 moderate, 6-8 severe irritation
Experimental: As one of tests on the compounds of this invention for their topical toxicity, a primary skin irritation test was made on skins using rabbits as the subjects. More particularly, an adhesive plaster for use in batch tests, to which 100 μl of a 3% test solution of each of the compounds of Examples 12, 37, 57 and 73 of this invention in 100 ml of polyethylene glycol 300 had dropwise been applied, was applied to the hair-shorn dorsal skin of three Japanese-native rabbits weighing 2.5 to 3.0 kg each and then sealed up on the dorsal skin for 24 hours. The rabbits were evaluated three times for their dorsal skin irritative reaction 24, 48 and 72 hours after removal of the plaster by using a method in accordance with the Draize's method.
The results are as shown in Table 18 in which the overall evaluation is represented by the following equation. [formula] and is graded into mild irritation (0-2 points), moderate irritation (2-6 points) and severe irritation (6-8 points).

glucose level in blood [13] = test: Rectal absorption of insulin from suppository: glucose level in blood of rabbits; type: in vivo, male rabbits; settings: insulin suppository 0.3 g/kg rectal, 3% promoter where used
Experimental: There were prepared the following suppositories for use in normal, control and test groups, respectively, each group consisting of five male rabbits weighing 2.5 to 3.5 kg each.
The three suppositories were into the rectums of the rabbit groups in an amount of 0.3 g suppository/kg, respectively. Thereafter, blood was collected from the rabbits through their ear vein three times with the lapse of time to measure the three collected blood samples for glucose level in blood by a glucose oxidase method. […] The results are indicated in terms of a change in glucose level in blood with respect to the glucose level in blood prior to the administration of the suppositories.

[14] = Rectal absorption of indomethacin and 5-FU from suppositories; type: in vivo, rabbits
Experimental: Each of male rabbits was fasted for 24 hrs prior to the following Experiment. The two suppositories were into the rectums of the rabbit groups in an amount of 0.3 g suppository/kg, respectively. Thereafter, blood was collected from the rabbits through their ear vein to measure the collected blood samples for the serum concentration of antibiotic by HPLC.
There was prepared test suppositories having the following formulations: […]
The same procedure of Example 151 was followed except that the above suppositories were used and that 3 or 4 rabbits were used in each group.

## CCCCCCCCCCSCCN1CCCC1=O [Example 12]
[1]; 3.0 wt.% test compound, 5-FU 1.8 wt.% in ethanol/water, 24 hrs
  Cumulative amount of 5-FU permeated, 24 hrs later: 465 ± 83 µM
[1]; 3.0 wt.% test compound, 5-FU 1.8 wt.% in ethanol/water, 48 hrs
  Cumulative amount of 5-FU permeated, 48 hrs later: 963 ± 22 µM
[1]; relative to Control (Vehicle) = 1.0
  Activity (5-FU permeation): 4.7
[2]
  Activity (serum concentration of pindolol): 47.8
[3]
  Cumulative amount of pindolol permeated, 24 hrs later: 50.0 ± 7.0 µM
  Cumulative amount of pindolol permeated, 48 hrs later: 127.6 ± 4.8 µM
[3]; test solution, relative to Control (Vehicle) = 1.0
  Activity (pindolol permeation): 34.5
[4]
  Activity (phenol red permeation): 86.5
[5]; ABPC suppository
  Activity (rectal absorption): 6.3
[5]; CET suppository
  Activity (rectal absorption): 3.0
[6]
  Activity (indomethacin permeation): 3.2
[7]
  Activity (indomethacin permeation): 18.4
[8]
  Activity (pindolol permeation): 3.9
[9]; drug: 1,25-Dihydroxy VD3
  Activity (skin penetration): 5.4
[9]; drug: 8-Bromocyclic AMP
  Activity (skin penetration): 50.3
[9]; drug: Chlordiazepoxide
  Activity (skin penetration): 4.8
[9]; drug: Clonidine
  Activity (skin penetration): 6.3
[9]; drug: Clotrimazole
  Activity (skin penetration): 3.2
[9]; drug: Diazepam
  Activity (skin penetration): 3.5
[9]; drug: Erythromycin
  Activity (skin penetration): 4.5
[9]; drug: Estradiol
  Activity (skin penetration): 2.0
[9]; drug: Ketotifen
  Activity (skin penetration): 3.8
[9]; drug: Lidocain
  Activity (skin penetration): 10.3
[9]; drug: Nicotinic acid
  Activity (skin penetration): 15.3
[9]; drug: Nifedipine
  Activity (skin penetration): 6.2
[9]; drug: Prostaglandin E2
  Activity (skin penetration): 4.8
[9]; drug: Scopolamin
  Activity (skin penetration): 2.4
[9]; drug: Testosterone
  Activity (skin penetration): 2.5
[9]; drug: Triamcinolone
  Activity (skin penetration): 5.5
[9]; drug: p-Aminobenzoic acid
  Activity (skin penetration): 12.3
[10]
  Activity (ketoprofen permeation): 3.3
Glucose level in blood [11]; glibenclamide 0.6 wt.% solution on dorsal skin, two hours after s.c. 20% glucose
  Glucose level: 115 ± 4 mg/dL
Glucose level in blood [11]; glucose level, relative to control group A and normal group
  Inhibition rate: 46.4%
In vivo; po
  LD50 at 168 h: > 5000 mg/kg
In vivo; sc
  LD50 at 168 h: > 5000 mg/kg
[12]; 3% solution in polyethylene glycol 300, 24 hours after removal of plaster
  Average irritation score, 24 hours: 0.3 ± 0.3
[12]; 3% solution in polyethylene glycol 300, 48 hours after removal of plaster
  Average irritation score, 48 hours: 0.3 ± 0.3
[12]; 3% solution in polyethylene glycol 300, 72 hours after removal of plaster
  Average irritation score, 72 hours: 0.5 ± 0.5
[12]; graded from irritation scores at 24, 48 and 72 hours
  Overall evaluation (skin irritation): Mild (mild irritation (0-2 points))
Glucose level in blood [13]; 0.5 hr
  Changes of glucose level to the initial, 0.5 hr: -30 mg/dL
Glucose level in blood [13]; 1 hr
  Changes of glucose level to the initial, 1 hr: -29 mg/dL
Glucose level in blood [13]; 3 hrs
  Changes of glucose level to the initial, 3 hrs: -22 mg/dL
[14]; drug: 5-FU
  Activity (rectal absorption): 4.8
[14]; drug: Indomethacin
  Activity (rectal absorption): 2.5
